Results from paper PMC11609934, “Exploration and characterization of the antimalarial activity of cyclopropyl carboxamides that target the mitochondrial protein, cytochrome b” (European Journal of Medicinal Chemistry, 2024).
Where two headings read alike, the source gives them in different places.

Tests used:
male gamete = experiment: Dual gamete formation assay, male gametes; format: cell-based; conditions: Plasmodium falciparum; NF54 parasites in a DGFA, 4 replicates
Procedure: (§1) To determine whether the cyclopropyl carboxamide class has transmission blocking potential we profiled selected analogs in a dual gamete formation assay. In this assay, stage V gametocytes are treated with compound, and gametogenesis is induced by the addition of xanthurenic acid. Male gamete viability is determined by an imaging algorithm measuring motile flagellation, while female viability is measured using an antibody to the female-specific Pfs25 surface marker. […] Collectively, the activity observed against male gametes is consistent with activity observed with other cyt b inhibitors.
(§2) Dual Gamete Formation Assay. Compounds were evaluated as previously described as a platform run at both Imperial College London and the London School of Hygiene and Tropical Medicine. Briefly, mature stage V gametocytes were exposed to compounds for 48 h at 37 °C in 384 well plates in gametocyte culture medium (RPMI 1640 supplemented with 25 mM HEPES, 50 μg/mL hypoxanthine, 4.8 g/L NaHCO3, 2 mM L-glutamine, 5 % pooled type AB serum, 0.5 % Albumax II (Gibco)) under a 1 % O2/3 % CO2/96 % N2 environment. Gametogenesis was then triggered by the addition of 10 μL ookinete medium (gametocyte culture medium supplemented with 100 μM xanthurenic acid and 0.27 μg/mL Cy3-labelled anti-Pfs25 antibody) to each well at room temperature. Plates were then cooled on a metal block at 4 °C for 4 min to ensure even cooling and then stabilized for a further 4 min at 28 °C. At 20 min post-induction, male gametogenesis was recorded in each well by automated brightfield microscopy using a × 4 objective lens and 1.5 × magnifier ( × 6 effective magnification). Afterward, plates were incubated in the dark at room temperature for 24 h and then female gametogenesis recorded in each well by automated fluorescence microscopy (anti-Pfs25-positive cells). […] All data was evaluated in comparison to the positive and negative controls to calculate percentage inhibition of male and female gametocytes, and dose response analysis and EC50 calculation performed using GraphPad Prism.

[1] = system: ring-stage P. falciparum parasites; experiment: Asexual stage of arrest assay; format: cell-based, Plasmodium falciparum; conditions: 10 times EC50, sampled every 12 h for 48 h
Procedure: Characterization of asexual stage phenotype and rate of asexual kill is important in determining the downstream application and TCP of an antimalarial series. […] Parasites were sampled every 12 h for 48 h, to prepare Giemsa-stained blood smears for analysis by microscopy. Parasitemia of each sample was measured by flow cytometry using SYBR-Green DNA staining.
Asexual Stage of Arrest Assay. This assay was conducted as previously described.

female gamete = experiment: Dual gamete formation assay, female gametes; format: cell-based; conditions: Plasmodium falciparum; NF54 parasites in a DGFA, 4 replicates
Procedure: as §1, §2

[2] = system: W466-resistant populations; experiment: 72 h growth assay against W466-resistant populations; format: cell-based, Plasmodium falciparum; conditions: for EC50: Plasmodium falciparum
Excerpt: To determine the mechanism of action of the cyclopropyl carboxamide series, a forward genetic resistance study was undertaken on the two hit compounds W466 (1) and W499 (2).
The structures of W466 (1) and W499 (2) are slightly different although they appear to belong to the same structural class. To confirm if W466 (1) and W499 (2) may have the same molecular target, W466 (1) and W499 (2) were each evaluated for cross resistance against their respective resistant populations from the pulsed forward genetic study (Fig. 2).

Dd2-B2 = experiment: 72 h SYBR Green I / MitoTracker flow cytometry assay, Dd2-B2; format: cell-based; conditions: Plasmodium falciparum, DD2, 72 h
Procedure: MIR assay.Plasmodium falciparum asexual blood stage (ABS) parasites were cultured at 3 % hematocrit in human O^+ RBCs in RPMI-1640 media, supplemented with 25 mM HEPES, 50 mg/L hypoxanthine, 2 mM L-glutamine, 0.21 % sodium bicarbonate, 0.5 % (wt/vol) AlbuMAXII (Invitrogen) and 10 μg/mL gentamycin, in modular incubator chambers (Billups- Rothenberg) at 5 % O2, 5 % CO2 and 90 % N2 at 37 °C. Dd2 parasites were obtained from T. Wellems (NIAID, NIH). Dd2-B2 is a genetically homogenous line that was cloned from Dd2 by limiting dilution in the Fidock lab. Dd2-Polδ is a line edited in the Fidock Lab to have a hypermutable polymerase. […] Parasite survival was assessed by flow cytometry on an iQue flow cytometer (Sartorius) using SYBR Green and MitoTracker Deep Red FM (Life Technologies) as nuclear stain and vital dyes respectively.

[3] = system: P. berghei ANKA parasites; experiment: P. berghei 4-day mouse model; format: in vivo, Plasmodium berghei
Procedure: The 4-day P. berghei mouse model is used to determine the preliminary in vivo efficacy of antimalarials at an early stage of optimization. To determine if cyclopropyl carboxamide series could reduce asexual blood stage infection, we evaluated representative compounds WJM280 (108) and analog 109 in the 4-day P. berghei mouse model. In this model, mice were infected P. berghei asexual stage parasites, and then 2 h after the infection, WJM280 (108) and analog 109 at 50 mg/kg and artesunate at 30 mg/kg were administered by oral gavage. The same compound doses were administered again, 24, 48, and 72 h post infection. Parasitemia was then quantified by preparing blood smears and visualizing by microscopy across days 2, 3, and 4. […] The inability of these compounds to reduce parasitemia was attributed to their high metabolic turnover, which is a characteristic that needs improving on further development of the cyclopropyl carboxamide class.
P. berghei 4-day Mouse Model. This model was conducted as previously described.

Pf Dd2 parental line = experiment: Asexual stage assay, Dd2 parental line (SYBR green by FACS, 72 h); format: cell-based; conditions: Plasmodium falciparum, DD2, 72 h, read-out: Pf Dd2 EC50 (SD), 72 h, SYBR green by FACS, 3 experiments
Procedure: Cyt b Resistant and ScDHODH Asexual Stage Assays. These assays were conducted as previously described. Briefly, asexual parasite strains indicated in Table 12 were incubated with compound in a dose response format for 72 h. Parasitemia was determined using SYBR-green fluorescence measured by flow cytometry (Thermo Fisher Attune). EC50 values were determined as described for the LDH assay.

SMILES | EC50 (male gamete) [µM] | asexual stage of arrest [1] | EC50 (female gamete) [µM] | fold shift in EC50 against W466-resistant populations compared to wildtype 3D7 [2] [fold] | EC50 ([2]; read-out: EC50 against W466-resistant parasites) [µM] | EC50 ([2]; read-out: W466-resistant populations EC50 (SD) #1) [µM] | EC50 ([2]; read-out: W466-resistant populations EC50 (SD) #2) [µM] | EC50 ([2]; read-out: W466-resistant populations EC50 (SD) #3) [µM] | IC50 (Dd2-B2; read-out: IC50 Dd2-B2) [µM] | IC90 (Dd2-B2; read-out: IC90 Dd2-B2) [µM] | body weights of mice ([3]; 50 mg/kg q.d. oral, 4 days) | % parasitemia ([3]; mice, day 4, oral gavage q.d. x4, 50 mg/kg (ART 30 mg/kg)) [%] | % reduction in parasitemia ([3]; versus vehicle control, mice, day 4, oral gavage q.d. x4, 50 mg/kg (ART 30 mg/kg)) [%] | EC50 (Pf Dd2 parental line) [µM]
O=C(NC1CC1)c1ccc(CN(Cc2ccc(Cl)cc2Cl)C2CC2)cc1 [W499 (2)] | 0.76 | parasite arrest at the start of the trophozoite stage | > 25 | 2 | 0.22 to 0.28 | 0.283 | 0.243 | 0.215 | 0.112 | 0.224 |  |  |  | 
CCCN(Cc1ccc(C(=O)NC2CC2)cc1)Cc1ccc(C(F)(F)F)cc1 [WJM280 (108), N-Cyclopropyl-4-((propyl(4-(trifluoromethyl)benzyl)amino)methyl)benzamide] |  |  |  |  |  |  |  |  |  |  | remained unchanged | 81 | 19 | 0.01
